According to patent US4886822A, “Substituted anilide compounds which are useful in the treatment of arrhythmia” (Kowa Company, Ltd., priority 1987, dated 1989):
Counter-ions that a name gives are not always drawn.

Assays:
[1] = system: Chloroform-Induced Arrhythmia; assay: Activity on Chloroform-Induced Arrhythmia (ventricular fibrillation); format: in vivo, ICR-strain mice; conditions: Mus musculus, po, 30 mg/kg orally; ICR mice, 10 per group; chloroform vapor; read-out: Percent VF inhibition
Procedure: Activity on Chloroform-Induced Arrhythmia: ICR-strain mice having a body weight of 20 to 35 g (10 per group) were used, and the test compound was administered orally in a dose of 30 mg/kg. The mice were put in a 1-liter beaker, and observed for 20 minutes for their symptoms or conditions. Then, they were placed in a vessel saturated with a vapor of chloroform, and the time which elapsed until the animals ceased to breathe was measured. After the stopping of the breathing, the mice were taken out from the vessel and their cardiograms (second induction) were recorded by a memory oscilloscope (VC-10, made by Nippon Kodensha) and a linear corder (WTR331 made by Watanabe Measuring Instrument Co., Ltd.). The occurrence of ventricular fibrillation (VF) was evaluated by the cardiograms. The results are shown in Table 1 by percent VF inhibition.

[2] = system: Ouabain-Induced Arrhythmia; assay: Activity on Ouabain-Induced Arrhythmia; format: in vivo, Male hybrid adult dogs; conditions: Canis lupus familiaris, iv; continuous injection into femoral vein 0.5 mg/kg/min; anaesthetized dogs; n=3 (range); read-out: Dose required complete inhibition
Procedure: Activity on Ouabain-Induced Arrhythmia: Male hybrid adult dogs weighing 9 to 17 kg were anaesthetized, and fixed in the supine position under artificial respiration. The blood pressures, heart rates and second induced cardiograms (using RA-101 made by San-ei Measuring Instrument Co., Ltd.) of the animals were measured. Ouabain was first intravenously administered in a dose of 40 μg/kg, and 30 minutes later in a dose of 20 μg/kg. Furthermore, until continuous ventricular arrhythmia was obtained, 10 μg/kg of ouabain was cumulatively administered at intervals of 15 minutes. The ventricular automaticity was examined substantially in accordance with the method of Roberts et al. (J. Pharmacol. Exp. Ther. 117, 374-384, 1956). The peripheral end of the right cervical vagus nerve was stimulated with short waves (0.4-1.9 V, 1 millisecond, 20 Hz) using an electrical stimulating device (MSE-3R made by Nippon Kodensha) for 10 seconds. […] After the administration, the vagus nerve was stimulated every minute, and the inhibition of extrasystole was observed. At the same time, the presence or absence of restoration of the cardiogram to a normal rhythm was observed using the inversion of R waves as an index in ventricular arrhythmia. The anti-arrhythmic action was evaluated such that when the normal sinus rhythm was restored and extrasystole was not induced by stimulation of the vagus nerve, the result was rated as complete inhibition.

[3] = cited from earlier work; for side effects: known/reported side effects (background)

Row | Compound | inhibition in vivo at 30 mg/kg [1] [%] | also measured
1 | C=CCOc1ccc(-c2cccnc2)c(NC(=O)CC(C)N)c1 (stereo not drawn) [Example 28, 5'-Allyloxy-3-amino-2'-(3-pyridyl)butyranilide] | 70 | ED100 [2]: 1.5 to 2.8 mg/kg
2 | CCOc1ccc(-c2cccnc2)c(NC(=O)CC(C)N)c1.Cl.Cl (stereo not drawn) [Example 33, 3-Amino-5'-ethoxy-2'-(3-pyridyl)butyranilide dihydrochloride] | 80 | ED100 [2]: 2 to 3 mg/kg
3 | CC(N)CC(=O)Nc1c(OCC(F)(F)F)cccc1-c1cccnc1 (stereo not drawn) [Example 23, 3-Amino-2'-(3-pyridyl)-6'-(2,2,2-trifluoroethoxy)butyranilide] | 70 | 
4 | C=CCOc1ccc(-c2ccccn2)cc1NC(=O)CC(C)N (stereo not drawn) [Example 30, 2'-Allyloxy-3-amino-5'-(2-pyridyl)butyranilide dihydrochloride] | 70 | 
5 | COc1ccc(-c2ncc[nH]2)c(NC(=O)CC(C)N)c1 (stereo not drawn) [Example 45, 3-Amino-2'-(2-imidazolyl)-5'-methoxybutyranilide] | 80 | 
6 | CC(C)N(CCC(C(N)=O)(c1ccccc1)c1ccccn1)C(C)C (stereo not drawn) [disopyramide] |  | action on the myocardium ([3]; background): inhibiting action on the myocardium; side effects [3]: thirst, ischurin, constipation, dizziness and vomiting
7 | Cc1cccc(C)c1OCC(C)N (stereo not drawn) [mexiletine, reference compound] | 50 | ED100 [2]: 2 to 4.5 mg/kg; side effects [3]: side effects on the digestive system and the meuropsychotic system with a high frequency; activity on the central nervous system ([3]; reported (background)): has activity on the central nervous system
8 | COc1ccc(-c2nc3cccnc3[nH]2)c(NC(=O)CC(C)N)c1 (stereo not drawn) [Example 46] | 80 | 
9 | COc1ccc(C(O)c2cccnc2)cc1NC(=O)CC(C)N (stereo not drawn) [Example 56, 3-Amino-5'-[hydroxy-(3-pyridyl)methyl]-2'-methoxybutyranilide hydrochloride] | 70 | 
10 | Cc1ccc(-c2ccccn2)c(NC(=O)CC(C)N)c1 (stereo not drawn) [Example 8, 3-Amino-5'-methyl-2'-(2-pyridyl)butyranilide] | 90 | 
11 | COc1ccc(-c2ccccn2)c(NC(=O)CC(C)N)c1 (stereo not drawn) [Example 1, 3-Amino-5'-methoxy-2'-(2-pyridyl)butynanilide] | 80 | 
12 | CC(N)CC(=O)Nc1cc(OCC(F)(F)F)ccc1-c1cccnc1 (stereo not drawn) [Example 20, 3-Amino-2'-(3-pyridyl)-5'-(2,2,2-trifluoroethoxy)butyranilide monohydrochloride] | 100 | 
